Patent publication US12419855B2, “Compositions comprising cannabinoid ions that are dissolved in glycerol” (Natural Extraction Systems, LLC, priority 2019, dated 2025)

Columns and labels:
[1] = system: active seizures in an epileptic Entlebucher Mountain Dog; experiment: Arresting active seizures in canine; format: in vivo; settings: single oral dose of 0.5-1.0 mg/kg in a formulation prepared according to Example 1
chronic insomnia = experiment: Efficacy against insomnia in humans; format: in vivo; settings: adult human with chronic insomnia; approximately 25 milligrams in a formulation prepared according to Example 3; self-reported
[2] = Solubility in ethanol:glycerol; format: physicochemical; settings: in 25:75 by volume ethanol:glycerol; stated as lower than the 25 grams per liter of cannabidiol anion in the formulation
Text: Cannabidiol is deprotonated in 0.5 molar potassium hydroxide in 190 proof ethanol to produce cannabidiol anion (2-(6-isopropenyl-3-methylcyclohex-2-en-1-yl)-3-hydroxy-5-pentylbenzene-1-oxide).

C=C(C)C1CCC(C)=CC1c1c(O)cc(CCCCC)cc1O (centres unmarked) [cannabidiol anion, 2-(6-isopropenyl-3-methylcyclohex-2-en-1-yl)-3-hydroxy-5-pentylbenzene-1-oxide]
arrest of active seizures [1]: both consistently and instantaneously arrested active seizures | seizure duration and severity [1]: reduced seizure duration and severity

CCCCCc1cc(O)c(CC=C(C)CCC=C(C)C)c(O)c1 [cannabigerol anion, 2-(3,7-dimethylocta-2,6-diene-1-yl)-3-hydroxy-5-pentylbenzene-1-oxide]
onset time of sedative effect (chronic insomnia): less than five | sedative effect on insomnia (chronic insomnia): effective at treating the insomnia

C=C(C)[C@@H]1CCC(C)=C[C@H]1c1c(O)cc(CCCCC)cc1O [molecular cannabidiol, cannabidiol]
solubility of molecular cannabidiol [2]: < 25 grams per liter
